Values joined by “and” are separate entries in the source; they are usually repeats but may differ in a detail not shown here. Equal values may be shown once.
Experiments:
AMARE = experiment: Pre-emergence field trial, weed control, AMARE; format: in vivo, Amaranthus retroflexus; conditions: 55 days
Method: (§1) The (a) penoxsulam or an agriculturally acceptable salt thereof is mixed with or applied in combination with (b) acetochlor or an agriculturally acceptable salt thereof in an amount sufficient to induce a synergistic herbicidal effect. […] As described in the Herbicide Handbook of the Weed Science Society of America, Ninth Edition, 2007, p. […] In some embodiments, the damage or injury to the undesired vegetation caused by the compositions and methods disclosed herein is evaluated using a scale from 0% to 100%, when compared with the untreated control vegetation, wherein 0% indicates no damage to the undesired vegetation and 100% indicates complete destruction of the undesired vegetation.
(§2) In Colby's equation, the value E corresponds to the effect (plant damage or injury) that is to be expected if the activity of the individual compounds is additive. If the observed effect is higher than the value E calculated according to the Colby equation, then a synergistic effect is present according to the Colby equation. […]
(§3) Colby's equation was used to determine the herbicidal effects expected from the mixtures, as described above. The results were measured at the evaluation intervals provided in Table 1 after the first application of the compositions. […]

CHEAL = experiment: Pre-emergence field trial, weed control, CHEAL; format: in vivo, Chenopodium album L.
Excerpt: (§4) The (a) penoxsulam or an agriculturally acceptable salt thereof is mixed with or applied in combination with (b) acetochlor or an agriculturally acceptable salt thereof in an amount sufficient to induce a synergistic herbicidal effect. […] As described in the Herbicide Handbook of the Weed Science Society of America, Ninth Edition, 2007, p. 429, “‘synergism’ [is] an interaction of two or more factors such that the effect when combined is greater than the predicted effect based on the response to each factor applied separately.” Synergistic in the herbicide context can mean that the use of (a) and (b) as defined above results in an increased weed control effect compared to the weed control effects that are possible with the use of (a) or (b) alone. In some embodiments, the damage or injury to the undesired vegetation caused by the compositions and methods disclosed herein is evaluated using a scale from 0% to 100%, when compared with the untreated control vegetation, wherein 0% indicates no damage to the undesired vegetation and 100% indicates complete destruction of the undesired vegetation.
(§5) In Colby's equation, the value E corresponds to the effect (plant damage or injury) that is to be expected if the activity of the individual compounds is additive. If the observed effect is higher than the value E calculated according to the Colby equation, then a synergistic effect is present according to the Colby equation.
(§6) Field trials were conducted with applications made in the area of naturally occurring weed populations in multiple countries. The soil or water was treated prior to the emergence of target plants. All treatments were applied using a randomized complete block trial design, with 3-5 replications per treatment.
(§7) Treatments consisted of penoxsulam and acetochlor applied alone and in combination. Spray solutions were prepared using an appropriate amount of dilution to treat the area of the plots based on use rates and water volumes necessary based on a per hectare basis. Spray solutions were prepared and applied with the specified active ingredients in single and two-way combinations to be able to perform Colby synergy and safening calculations. Formulated products were applied to the soil with a backpack sprayer equipped with flat fan nozzles calibrated to deliver from 200 to 300 L/ha at a normal spray height above the soil, at spray pressures ranging from 200 to 400 kilopascals (kPa). […]
as §3

VIOAR = experiment: Pre-emergence field trial, weed control, VIOAR; format: in vivo, Viola arvensis Murr.; conditions: 61 days
Method: as §1, §2, §3

GALAP = experiment: Pre-emergence field trial, weed control, GALAP; format: in vivo, Galium aparine L.
Excerpt: as §4, §5, §6, §7, §3

SOLNI = experiment: Pre-emergence field trial, weed control, SOLNI; format: in vivo, Solanum nigrum
Excerpt: as §4, §5, §6, §7, §3

ECHCO = experiment: Pre-emergence field trial, weed control, ECHCO; format: in vivo, Echinochloa colonum (L.) Link
Excerpt: as §4, §5, §6
(§8) Treatments consisted of penoxsulam and acetochlor applied alone and in combination. Spray solutions were prepared using an appropriate amount of dilution to treat the area of the plots based on use rates and water volumes necessary based on a per hectare basis. Spray solutions were prepared and applied with the specified active ingredients in single and two-way combinations to be able to perform Colby synergy and safening calculations. Formulated products were applied to the soil with a backpack sprayer equipped with flat fan nozzles calibrated to deliver from 200 to 300 L/ha at a normal spray height above the soil, at spray pressures ranging from 200 to 400 kilopascals (kPa). Formulated products were applied into flooded rice paddy by calculating the area to be treated, calculating the amount of active ingredient necessary to treat the area at the specified rates, then mixing the treatments in water to apply 8 L/ha of water to the plots.
(§9) Colby's equation was used to determine the herbicidal effects expected from the mixtures, as described above. The results were measured at the evaluation intervals provided in Table 1 after the first application of the compositions. […] The herbicide tank-mix combinations tested, application rates and ratios employed, plant species tested, and results are given below.

CYPRO = experiment: Pre-emergence field trial, weed control, CYPRO; format: in vivo, Cyperus rotundus L.; conditions: 35 days
Method: as §1, §2, §3

TRBSS = experiment: Pre-emergence field trial, weed control, TRBSS; format: in vivo, species of the genus Tribulus
Excerpt: as §4, §5, §6, §8, §9

POLPE = experiment: Pre-emergence field trial, weed control, POLPE; format: in vivo, Polygonum persicaria L.; conditions: 14 days
Method: as §1, §2, §3

POLCO = experiment: Pre-emergence field trial, weed control, POLCO; format: in vivo, Polygonum convolvulus L.
Excerpt: as §4, §5, §6, §8, §9

POLLA = experiment: Pre-emergence field trial, weed control, POLLA; format: in vivo, Polygonum lapathifolium L.
Excerpt: as §4, §5, §6, §8, §9

corn (ZEAMX) = experiment: Pre-emergence field trial, crop injury, corn; conditions: in vivo
Method: as §1, §2
Colby's equation was used to determine the herbicidal effects expected from the mixtures, as described above. The results were measured at the evaluation intervals provided in Table 2 after the first application of the compositions. […]

[1] = 64 days, acetochlor 1900 g ai/ha
[2] = 28 days, acetochlor 2300 g ai/ha

For COc1cnc(OC)n2nc(NS(=O)(=O)c3c(OCC(F)F)cccc3C(F)(F)F)nc12 [Penoxsulam], the “Mean % weed control” value (AMARE; penoxsulam 12 g ai/ha) was 30%, the “Mean % weed control” value (CHEAL; 34 days, penoxsulam 20 g ai/ha) was 56.67% and the “Mean % weed control” value (CHEAL; 61 days, penoxsulam 20 g ai/ha) was 50%. For the same compound, the “Mean % weed control” value (VIOAR; penoxsulam 20 g ai/ha) was 0%, the “Mean % weed control” value (GALAP; 38 days, penoxsulam 20 g ai/ha) was 40% and the “Mean % weed control” value (GALAP; 64 days, penoxsulam 20 g ai/ha) was 60%. The “Mean % weed control” value (SOLNI; 64 days, penoxsulam 20 g ai/ha) was 40%, the “Mean % weed control” value (SOLNI; 92 days, penoxsulam 20 g ai/ha) was 30% and the “Mean % weed control” value (ECHCO; 20 days, penoxsulam 15 g ai/ha) was 38.75%. The “Mean % weed control” value (ECHCO; 20 days, penoxsulam 20 g ai/ha) was 50%, the “Mean % weed control” value (ECHCO; 35 days, penoxsulam 15 g ai/ha) was 55% and the “Mean % weed control” value (CYPRO; penoxsulam 20 g ai/ha) was 39.38%. For the same compound, the “Mean % weed control” value (TRBSS; 35 days, penoxsulam 5 g ai/ha) was 32%, the “Mean % weed control” value (TRBSS; 35 days, penoxsulam 10 g ai/ha) was 38.5% and the “Mean % weed control” value (TRBSS; 49 days, penoxsulam 5 g ai/ha) was 13%. For the same compound, the “Mean % weed control” value (TRBSS; 49 days, penoxsulam 10 g ai/ha) was 32%, the “Mean % weed control” value (POLPE; penoxsulam 20 g ai/ha) was 80% and the “Mean % weed control” value (POLCO; 14 days, penoxsulam 15 g ai/ha) was 85%. The “Mean % weed control” value (POLCO; 14 days, penoxsulam 20 g ai/ha) was 87.5%, the “Mean % weed control” value (POLCO; 28 days, penoxsulam 15 g ai/ha) was 65% and the “Mean % weed control” value (POLCO; 28 days, penoxsulam 20 g ai/ha) was 77.5%. For the same compound, the “Mean % weed control” value (POLLA; 14 days, penoxsulam 15 g ai/ha) was 85%, the “Mean % weed control” value (POLLA; 28 days, penoxsulam 15 g ai/ha) was 75% and the “Mean % weed control” value (POLLA; 28 days, penoxsulam 20 g ai/ha) was 90%. For the same compound, the “Mean % weed control” value (POLLA; 98 days, penoxsulam 15 g ai/ha) was 71.25%.
In the case of CCOCN(C(=O)CCl)c1c(C)cccc1CC [Acetochlor, 2-chloro-N-(ethoxymethyl)-N-(2-ethyl-6-methylphenyl)acetamide], the “Mean % weed control” value (AMARE; acetochlor 2000 g ai/ha) was 0%, the “Mean % weed control” value (CHEAL; 34 days, acetochlor 1400 g ai/ha) was 3.33% and the “Mean % weed control” value (CHEAL; 61 days, acetochlor 1400 g ai/ha) was 36.67%. The “Mean % weed control” value (VIOAR; acetochlor 1400 g ai/ha) was 0%, the “Mean % weed control” value (GALAP; 38 days, acetochlor 1900 g ai/ha) was 6.67% and the “Mean % weed control” value (GALAP; [1]) was 10%. The “Mean % weed control” value (SOLNI; [1]) was 13.33%, the “Mean % weed control” value (SOLNI; 92 days, acetochlor 1900 g ai/ha) was 3.33% and the “Mean % weed control” value (ECHCO; 20 days, acetochlor 15 g ai/ha) was 22.5%. For the same compound, the “Mean % weed control” value (ECHCO; 35 days, acetochlor 15 g ai/ha) was 15%, the “Mean % weed control” value (CYPRO; acetochlor 15 g ai/ha) was 4.25% and the “Mean % weed control” value (TRBSS; 35 days, acetochlor 1800 g ai/ha) was 78%. The “Mean % weed control” value (TRBSS; 49 days, acetochlor 1800 g ai/ha) was 63%, the “Mean % weed control” value (POLPE; acetochlor 1400 g ai/ha) was 36.67% and the “Mean % weed control” value (POLCO; [2]) was 5% and 12.5%. The “Mean % weed control” value (POLLA; 14 days, acetochlor 2300 g ai/ha) was 20%, the “Mean % weed control” value (POLLA; [2]) was 10% and 7.5% and the “Mean % weed control” value (POLLA; 98 days, acetochlor 2300 g ai/ha) was 12.5%. For the same compound, the “Mean % crop injury” value (corn (ZEAMX)) was 0%.
